Measurements as given in patent US10377770B2 (Novartis AG, priority 2015, dated 2019).

These compounds were tested against C-Raf FL (full length CRAF with Y340E and Y341E activating mutations, co-expressed with h14-3-3 zeta) (Homo sapiens (Human), UniProt P04049, Y340E/Y341E) (assay: In vitro Raf activity determination, AlphaScreen p-MEK readout, c-Raf (C-Raf FL)). Conditions: c-Raf approximately 4 nM, ATP 1 μM, pre-incubation 60 minutes, reaction 1 hour.
Type: biochemical
Procedure, shortened: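 Full-length C-Raf (~4 nM) pre-incubated 60 min at room temperature with compound and kinase-dead biotinylated MEK1 (~10 nM) in Tris pH 7.5, 15 mM MgCl2, BSA, DTT. Reaction started with 1 μM ATP and run 1 h at room temperature. Phospho-MEK detected by AlphaScreen with anti-p-MEK antibody.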

Chain of C-Raf FL (full length CRAF with Y340E and Y341E activating mutations, co-expressed with h14-3-3 zeta) (P04049 whole entry Y340E/Y341E): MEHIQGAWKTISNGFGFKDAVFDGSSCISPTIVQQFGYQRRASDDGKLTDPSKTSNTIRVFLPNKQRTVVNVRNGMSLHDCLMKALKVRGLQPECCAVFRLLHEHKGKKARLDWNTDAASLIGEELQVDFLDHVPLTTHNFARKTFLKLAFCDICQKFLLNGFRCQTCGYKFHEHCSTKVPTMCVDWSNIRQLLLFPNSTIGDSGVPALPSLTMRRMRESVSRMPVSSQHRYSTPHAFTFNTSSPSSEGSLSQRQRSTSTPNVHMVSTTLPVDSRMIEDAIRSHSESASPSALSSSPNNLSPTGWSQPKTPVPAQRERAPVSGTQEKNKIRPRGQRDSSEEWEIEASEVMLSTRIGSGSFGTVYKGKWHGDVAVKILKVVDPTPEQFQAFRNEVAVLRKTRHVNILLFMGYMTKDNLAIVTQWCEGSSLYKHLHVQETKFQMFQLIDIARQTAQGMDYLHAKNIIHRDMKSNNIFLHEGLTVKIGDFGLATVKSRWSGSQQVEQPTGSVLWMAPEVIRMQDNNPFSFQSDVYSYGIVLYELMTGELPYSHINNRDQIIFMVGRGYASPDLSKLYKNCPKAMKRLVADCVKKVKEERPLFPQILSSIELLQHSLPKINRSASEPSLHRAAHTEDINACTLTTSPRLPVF
Chain of C-Raf FL (full length CRAF with Y340E and Y341E activating mutations, co-expressed with h14-3-3 zeta) (P63104 whole entry partner): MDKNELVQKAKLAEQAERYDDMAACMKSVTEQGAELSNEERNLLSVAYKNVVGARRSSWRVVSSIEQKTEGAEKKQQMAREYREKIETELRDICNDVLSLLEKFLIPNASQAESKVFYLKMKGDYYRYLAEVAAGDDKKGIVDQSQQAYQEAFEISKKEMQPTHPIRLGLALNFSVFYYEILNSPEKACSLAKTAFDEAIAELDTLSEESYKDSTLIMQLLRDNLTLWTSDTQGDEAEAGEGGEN

First: CNC(=O)C1Cc2ccc(-c3cc(NC(=O)c4ccnc(C(F)(F)F)c4)ccc3C)cc2N2CCOCC12 (racemic) [Example 66, (rac)-N-methyl-9-(2-methyl-5-(2-(trifluoromethyl)isonicotinamido)phenyl)-1,2,4,4a,5,6-hexahydro-[1,4]oxazino[4,3-a]quinoline-5-carboxamide]
Second: Cc1ccc(NC(=O)c2ccnc(C(C)(F)F)c2)cc1-c1ccc2c(c1)N1CCOC[C@@H]1C1(COC1)C2 [Example 58, (S)-2-(1,1-difluoroethyl)-N-(4-methyl-3-(1′,2′,4′,4a′-tetrahydro-6′H-spiro[oxetane-3,5′-[1,4]oxazino[4,3-a]quinolin]-9′-yl)phenyl)isonicotinamide]
The IC50 of the first is 11-fold higher: 110 pM for the first, 10 pM for the second. The second is the more potent here.

Compared with `Cc1ccc(NC(=O)c2ccnc(C(C)(F)F)c2)cc1-c1cnc2c(c1)N1CCOCC1C1(COC1)C2` (racemic) [Example 152, rac-2-(1,1-difluoroethyl)-N-(4-methyl-3-(2,4,4a,6-tetrahydro-1H-spiro[[1,4]oxazino[4,3-a][1,5]naphthyridine-5,3′-oxetan]-9-yl)phenyl)isonicotinamide], `Cc1ccc(NC(=O)c2ccnc(C(C)(F)F)c2)cc1-c1ccc2c(c1)N1CCOCC1CC2(C)O` (racemic) [Example 23] is 4.2-fold higher in IC50: 11 pM for the first, 46 pM for the second.

`CCN1C(=O)[C@@H]2COCC[C@@]2(C)c2cc(-c3cc(NC(=O)c4ccnc(C(F)(F)F)c4)ccc3C)cnc21` (relative stereo) [Example 342, N-(3-((4a,10b-trans)-6-ethyl-10b-methyl-5-oxo-2,4,4a,5,6,10b-hexahydro-1H-pyrano[3,4-c][1,8]naphthyridin-9-yl)-4-methylphenyl)-2-(trifluoromethyl)isonicotinamide] and `CCN1C(=O)OC2COCCC2c2cc(-c3cc(NC(=O)c4ccnc(C(C)(F)F)c4)ccc3C)cnc21` [Example 302, 2-(1,1-difluoroethyl)-N-(3-((4aS,11bR-cis)-7-ethyl-6-oxo-2,4,4a,6,7,11b-hexahydro-1H-pyrano[4,3-f]pyrido[2,3-d][1,3]oxazepin-10-yl)-methylphenyl) isonicotinamide] are the same in IC50: 100 pM for the first, 100 pM for the second.

`Cc1ccc(NC(=O)c2cnnc(C(F)(F)F)c2)cc1-c1ccc2c(c1)N1CCOC[C@H]1[C@](F)(CF)C2` [Example 475, N-(3-((4aS,5S)-5-fluoro-5-(fluoromethyl)-1,2,4,4a,5,6-hexahydro-[1,4]oxazino[4,3-a]quinolin-9-yl)-4-methylphenyl)-6-(trifluorometh-yl)pyridazine-4-carboxamide] and `Cc1ncc(NC(=O)c2cccc(C(F)(F)F)c2)cc1-c1ccc2c(c1)N1CCOC[C@@H]1[C@@](CO)(CF)C2` [Example 406, N-(5-((4aS,5S)-5-(fluoromethyl)-5-(hydroxymethyl)-1,2,4,4a,5,6-hexahydro-[1,4]oxazino[4,3-a]quinolin-9-yl)-6-methylpyridin-3-yl)-3-(trifluoromethyl)benzamide] are the same in IC50: 400 pM for the first, 400 pM for the second.

`CCN1C(=O)N2COCCC2(C)c2cc(-c3cc(NC(=O)c4cccc(C(F)(F)F)c4)cnc3C)ccc21` (centres unmarked) [Example 243] and `Cc1ncc(NC(=O)c2cccc(C(F)(F)F)c2)cc1-c1cc(F)c2c(c1)N1CCOC[C@@H]1[C@](F)(CO)C2` [Example 437, N-(5-((4aR,5S)-5,7-difluoro-5-(hydroxymethyl)-1,2,4,4a,5,6-hexahydro-[1,4]oxazino[4,3-a]quinolin-9-yl)-6-methylpyridin-3-yl)-3-(trifluoro-methyl)benzamide] are the same in IC50: 600 pM for the first, 600 pM for the second.

In the case of `Cc1ncc(NC(=O)c2ccnc(C(C)(F)F)c2)cc1-c1ccc2c(c1)N1CCOCC[C@@H]1C[C@@H]2O` [Example 97, 2-(1,1-difluoroethyl)-N-(5-((5aR,7S)-7-hydroxy-1,2,5,5a,6,7-hexahydro-4H-[1,4]oxazepino[4,5-a]quinolin-10-yl)-6-methylpyridin-3-yl)isonicotinamide], the IC50 is reported as 14 pM.
